According to patent US20240101584A1, “TARGETED DELIVERY OF 1,2,4,5 TETRAOXANE COMPOUNDS AND THEIR USES” (Westlake University, priority 2021, published 2024):
“Also recorded” adds a separate entry of the source. Read-outs that look alike come from different tables or passages of the source.

Legend:
HCT116 cells = assay: MTT viability assay, HCT116 cells; assay type: cell-based, human; conditions: MTT, 48 h incubation, mean, n = 3, read-out: IC50 against HCT116 cells
Experimental: (§1) The anticancer activities of the exemplary compounds listed in Example 1 were tested against human cervix Hela cells, mammary breast cancer MDA-MB-231 cells, human hepatocellular HepG2 cells, human colorectal HCT116 cells, mammary ductal T47D cells, non-cancerous NIH3T3 cells, dog's kidney MDCK cells, and mouse brain bEnd.3 cells, respectively.

MDA-MB-231 cells = assay: MTT viability assay, MDA-MB-231 cells; assay type: cell-based
Experimental: as §1

HepG2 cells = assay: MTT viability assay, HepG2 cells; assay type: cell-based, human; conditions: MTT, 48 h incubation, mean, n = 3, read-out: IC50 against HepG2 cells
Experimental: as §1

HEK293 cells = assay: MTT viability assay, HEK293 cells; assay type: cell-based; conditions: mean, n = 3, read-out: IC50 against HEK293 cells
Hela cells = assay: MTT viability assay, Hela cells; assay type: cell-based, human; conditions: 48 h incubation, mean, n = 3, read-out: IC50 against Hela cells
Experimental: as §1

T47D cells = assay: MTT viability assay, T47D cells; assay type: cell-based
Experimental: as §1

MDCK cells = assay: MTT viability assay, MDCK cells; assay type: cell-based, dog; conditions: 48 h incubation, mean, n = 3, read-out: IC50 against MDCK cells
Experimental: as §1

NIH3T3 cells = assay: MTT viability assay, non-cancerous NIH3T3 cells; assay type: cell-based
Experimental: as §1

bEnd.3 cells = assay: MTT viability assay, bEnd.3 cells; assay type: cell-based, mouse; conditions: mean, n = 3, read-out: IC50 against bEnd.3 cells
Experimental: as §1

[1] = test system: MDA-MB-231 xenograft tumors; assay: Mouse xenograft breast tumors (MDA-MB-231); assay type: in vivo, Nude mice; conditions: mouse, in vivo
Experimental: FIG. 12A is a graph showing the tumor volume of xenograft tumors versus time after s.c. injection of DMSO, PTX, compound 37b, or compound 48. Nude mice were injected s.c. with MDA-MB-231 cells (10^6) and randomly allocated to one of the six treatment groups (n=5): (i) DMSO, (ii) Paclitaxel (PTX), 5 mg/kg, (iii) compound 37b, 5 mg/kg, (iv) compound 37b, 10 mg/kg, (v) compound 48, 5 mg/kg, or (vi) compound 48, 10 mg/kg. When control animals (DMSO) began to appear tumor ulceration (25 days), all animals in the experiment were sacrificed and photographed.
FIG. 12B are photographs of the tumor from sacrificed animals of different treatment groups after 25 days. FIG. 12C is a graph showing the tumor weight of xenograft tumors versus time after s.c. injection of DMSO, PTX, compound 37b, or compound 48. Data are shown as mean±SEM. * P≤0.05 versus DMSO group. FIG. 12D are photographs showing the morphological observation of mice tissue treated with DMSO, paclitaxel, compound 37b, or compound 48 with H&E staining on heart, liver, kidney, lungs, and spleen tissues (200×).

HEYA8 CSCs = assay: CellTiter-Glo viability, HeyA8 cancer stem cells (spheres); assay type: cell-based; conditions: 5 μM of erastin, 50 μM of artesunate; RSL3 single dose
HeyA8 cells = assay: CellTiter-Glo viability, adherent HeyA8 ovarian cancer cells; assay type: cell-based; conditions: high concentration
[2] = Homo sapiens, MDA-MB-231, 48 h, MTT, 48 h incubation, mean, n = 3, read-out: IC50 against MDA-MB-231 cells
[3] = Homo sapiens, HEK293, 48 h incubation
[4] = Homo sapiens, T47D, MTT, 48 h incubation, mean, n = 3, read-out: IC50 against T47D cells
[5] = Mus musculus, NIH3T3, MTT, 48 h incubation, mean, n = 3, read-out: IC50 against NIH3T3 cells
[6] = Mus musculus, BEND3, 48 h incubation
[7] = MTT, 48 h incubation, mean, n = 3, read-out: IC50 against MDA-MB-231 cells
[8] = MTT, 48 h incubation, mean, n = 3, read-out: IC50 against NIH3T3 cells
[9] = MTT, 48 h incubation, mean, n = 3, read-out: IC50 against T47D cells

SMILES	IC50 (MDA-MB-231 cells; [2])	IC50 (Hela cells; Homo sapiens, HeLa)	IC50 (T47D cells; [4])	IC50 (MDCK cells; Canis lupus familiaris, MDCK)	IC50 (NIH3T3 cells; [5])	also measured
CC(C)(C)C1CCC2(CC1)OOC1(CCC(O)CC1)OO2 (stereo not drawn) [Compound 37, 12-(tert-butyl)-7,8,15,16-tetraoxadispiro[5.2.59.26]hexadecan-3-ol]	7.4 µM	15.1 µM	6.1 µM	> 50 µM	7.1 µM	IC50 (HCT116 cells; Homo sapiens, HCT-116): 14.4 µM; IC50 (HepG2 cells; Homo sapiens, HepG2): 4.8 µM; IC50 (HEK293 cells; [3]): 5.8 µM; IC50 (bEnd.3 cells; [6]): > 100 µM
CC(C)(C)C1CCC2(CC1)OOC1(CCC(OC(=O)NCCCN(Cc3ccccc3)Cc3ccccc3)CC1)OO2 (stereo not drawn) [Compound 37d, 12-(tert-butyl)-7,8,15,16-tetraoxadispiro[5.2.59.26]hexadecan-3-yl(3-(dibenzylamino)propyl)carbamate]	31.7 µM	24.8 µM	10.4 µM	> 100 µM	30.3 µM	–
O=C(NCCC[P+](c1ccccc1)(c1ccccc1)c1ccccc1)OC1CCC2(CC1)OOC1(OO2)C2CC3CC(C2)CC1C3 (stereo not drawn) [Compound 30b, (3-(((((1r,3r,5r,7r)-dispiro[adamantane-2,3′-[1,2,4,5]tetraoxane-6′,1″-cyclohexan]-4″-yl)oxy)carbonyl)amino)propyl)triphenylphosphonium bromide]	–	–	–	–	–	IC50 (HCT116 cells): 1.4 µM; IC50 (MDA-MB-231 cells; [7]): 0.53 µM; IC50 (HepG2 cells): 1.2 µM; IC50 (HEK293 cells; 48 h incubation): 1 µM; IC50 (Hela cells): 2.4 µM; IC50 (MDCK cells): 5.8 µM; IC50 (NIH3T3 cells; [8]): 5.8 µM
CC(C)(C)C1CCC2(CC1)OOC1(CCC(OC(=O)Oc3ccc([N+](=O)[O-])cc3)CC1)OO2 (stereo not drawn) [Compound 37c, 12-(tert-butyl)-7,8,15,16-tetraoxadispiro[5.2.59.26]hexadecan-3-yl(4-nitrophenyl) carbonate]	–	–	–	–	–	abnormal behavior or weight loss during treatment period [1]: no abnormal behavior or weight loss
CN(C)CCCNC(=O)OC1CCC2(CC1)OOC1(OO2)C2CC3CC(C2)CC1C3 (stereo not drawn) [Compound 30a, (1r,3r,5r,7r)-dispiro[adamantane-2,3′-[1,2,4,5]tetraoxane-6′,1″-cyclohexan]-4″-yl(3-(dimethylamino)propyl)carbamate]	14.4 µM	–	–	42.8 µM	–	IC50 (HEK293 cells; [3]): 2.5 µM
CN(C)CCCNC(=O)OC1CCC2(CC1)OOC1(CCC(C(C)(C)C)CC1)OO2 (stereo not drawn) [Compound 37a, 12-(tert-butyl)-7,8,15,16-tetraoxadispiro[5.2.59.26]hexadecan-3-yl(3-(dimethylamino)propyl)carbamate]	2 µM	3.9 µM	2.2 µM	23.7 µM	1.7 µM	IC50 (HCT116 cells; Homo sapiens, HCT-116): 4.6 µM; IC50 (HepG2 cells; Homo sapiens, HepG2): 2 µM; IC50 (HEK293 cells; [3]): 0.8 µM; IC50 (bEnd.3 cells; [6]): 10.9 µM
CC(C)(C)C1CCC2(CC1)OOC1(CCC(OC(=O)NCCOCCOCCNC(=O)OC3CCC4(CC3)OOC3(CCC(C(C)(C)C)CC3)OO4)CC1)OO2 (stereo not drawn) [Compound 37j, bis(12-(tert-butyl)-7,8,15,16-tetraoxadispiro[5.2.59.26]hexadecan-3-yl) ((ethane-1,2-diylbis(oxy))bis(ethane-2,1-diyl))dicarbamate]	23.9 µM	30.6 µM	10.6 µM	> 100 µM	> 100 µM	–
CCOc1ccccc1-n1c(C(C)N2CCN(C(=O)COc3ccc(Cl)cc3)CC2)nc2ccccc2c1=O (stereo not drawn) [Erastin, reference compound]	1.3 µM	–	–	–	0.29 µM	cytotoxic effect on HEYA8 CSCs at single dose (HEYA8 CSCs): did not show any cytotoxic effect; also recorded: almost insensitive
CN(CCCNC(=O)OC1CCC2(CC1)OOC1(CCC(C(C)(C)C)CC1)OO2)Cc1ccccc1 (stereo not drawn) [Compound 37e, 12-(tert-butyl)-7,8,15,16-tetraoxadispiro[5.2.59.26]hexadecan-3-yl(3-(benzyl(methyl)amino)propyl)carbamate]	1.7 µM	1.7 µM	1.2 µM	19.3 µM	1.9 µM	–
C[C@H]1[C@H](OC(=O)CCC(=O)O)O[C@@H]2O[C@@]3(C)CC[C@H]4[C@H](C)CC[C@@H]1[C@@]24OO3 [Artesunate, reference compound]	20.3 µM	–	–	–	17.4 µM	cytotoxic effect on HEYA8 CSCs at single dose (HEYA8 CSCs): did not show any cytotoxic effect; also recorded: almost insensitive; cell death of adherent HEYA8 cells (HeyA8 cells): ~50%
CC(C)(C)C1CCC2(CC1)OOC1(CCC(OC(=O)N3CCNCC3)CC1)OO2 (stereo not drawn) [Compound 37f, 12-(tert-butyl)-7,8,15,16-tetraoxadispiro[5.2.59.26]hexadecan-3-yl piperazine-1-carboxylate]	< 4 µM	3.1 µM	1.3 µM	12.4 µM	11.6 µM	IC50 (MDA-MB-231 cells; Homo sapiens, MDA-MB-231, Table 12b, read-out: IC50 MDA-MB-231): 2.9 ± 0.8 µM; selectivity index (IC50 of NIH3T3 divided by IC50 on MDA-MB-231) (MDA-MB-231 cells; Table 12b, value in bracket): (>4); IC50 (T47D cells; Homo sapiens, T47D, Table 12b, read-out: IC50 T47D): 1.3 ± 0.6 µM; selectivity index (IC50 of NIH3T3 divided by IC50 on T47D) (T47D cells; Table 12b, value in bracket): (>8.9); IC50 (NIH3T3 cells; Mus musculus, NIH3T3, Table 12b, read-out: IC50 NIH3T3): 11.6 ± 2.4 µM
CC(C)(C)C1CCC2(CC1)OOC1(CCC(OC(=O)NCCCCO[C@@H]3O[C@H](CO)[C@@H](O)[C@H](O)[C@H]3O)CC1)OO2 (stereo partly drawn) [Compound 37i, 12-(tert-butyl)-7,8,15,16-tetraoxadispiro[5.2.59.26]hexadecan-3-yl(4-(((2R,3R,4S,5S,6R)-3,4,5-trihydroxy-6-(hydroxymethyl)tetrahydro-2H-pyran-2-yl)oxy)butyl)carbamate]	–	–	–	–	–	IC50 (MDA-MB-231 cells; [7]): 24.3 µM; IC50 (Hela cells): 28.5 µM; IC50 (T47D cells; [9]): 13.2 µM; IC50 (MDCK cells): > 50 µM; IC50 (NIH3T3 cells; [8]): > 100 µM
O=C(CC1CCC2(CC1)OOC1(OO2)C2CC3CC(C2)CC1C3)NCCC[P+](c1ccccc1)(c1ccccc1)c1ccccc1 (stereo not drawn) [Compound 6b, (3-(2-((1r,3r,5r,7r)-dispiro[adamantane-2,3′-[1,2,4,5]tetraoxane-6′,1″-cyclohexan]-4″-yl)acetamido)propyl)triphenylphosphonium bromide]	–	–	–	–	–	IC50 (MDA-MB-231 cells; [7]): 2.6 µM; IC50 (HEK293 cells; 48 h incubation): 1.6 µM; IC50 (Hela cells): 2.2 µM; IC50 (T47D cells; [9]): 4.4 µM; IC50 (MDCK cells): 18.1 µM; IC50 (bEnd.3 cells; 48 h incubation): 12.3 µM
